{"source": "patent US6797807B1", "about": "“Compounds and methods for cancer therapy” (Adherex Technologies, Inc., priority 1997, dated 2004)", "key": {"[1]": {"system": "Human neutrophils (polymorphonuclear leukocytes, PMN) on HUVEC monolayers", "test": "Neutrophil (PMN) transendothelial migration across HUVEC monolayers with fMLP", "type": "cell-based", "conditions": "10^-7 M fMLP, vs control with fMLP, FIGS. 10-11", "experimental": "A further assay for evaluating modulating agent activity involves determining an effect of a candidate agent on neutrophil migration on endothelial cells. Within such assays, endothelial cells (e.g., HUVEC) may be harvested and cultured using standard techniques. Cells are grown to confluence on 8.0 μm pore cell culture inserts (Falcon, Franklin Lake, N.J.) essentially as described by Ohno et al., Inflammation 21(3):313-24, 1997. Radiolabeled human neutrophils (polymorphonuclear leukocytes, PMN) are added to the apical surface of HUVEC monolayers and allowed to migrate. Migration assays are generally performed in the presence of 10^−7 M N-formyl-methionyl-leucyl-phenylalanine (fMLP), a chemoattractant that causes the leukocytes to undergo diapedesis. PMN migration may be quantitated as follows: [formula]\nHuman umbilical vein endothelial cells (HUVEC) were harvested from umbilical cords by 0.2% collagenase treatment essentially as described by Yoshida et al., Am. […]\nFor neutrophil diapedesis experiments, HUVEC were grown to confluence on 8.0 μm pore cell culture inserts (Falcon, Franklin Lake, N.J.) essentially as described by Ohno et al., inflammation 21(3):313-24, 1997. […] The cells were then washed twice with cold phosphate-buffered saline (PBS), spun at 250 g for 8 minutes to remove unincorporated radioactivity and resuspended in PBS. […]\nPMN migration was quantitated as follows: [formula]"}, "HUVEC": {"system": "HUVEC", "test": "Immunofluorescence analysis of occludin in HUVEC", "type": "cell-based, human", "conditions": "200 μg/mL peptide vs vehicle; FIG. 12B", "experimental": "For immunofluorescence analysis of occludin, HUVEC grown on glass coverslips were treated with vehicle (FIG. 12A) or 200 μg/mL peptide 76 (FIG. 12B). Cells were fixed with methanol and acetone and stained for occludin (Kevil et al., Microcirculation 5:197-210, 1998). Immunofluorescent staining was performed with anti-occludin polyclonal antibody (Zymed, San Francisco, Calif. used at a concentration of 4 μg/ml) and Cy3-conjugated goat anti-rabbit secondary Ab (Jackson Labs, Westgrove, Pa., used at a 1:250 dilution), and analyzed by fluorescence microscope. […] The photographs shown are representative of at least 20 different fields observed in each experiment and of three independent experiments. Bar=25 μm."}, "Adult rats": {"system": "Adult rats", "test": "Miles assay for vascular permeability (Evans blue)", "type": "in vivo", "conditions": "rat, 100 μg/ml peptide subdermal, OD at 620 nm; compared with PBS and the N-acetyl/C-amide peptides; FIG. 6, FIG. 8", "experimental": "The ability of an agent to modulate cell adhesion may generally be evaluated in vivo by assessing the effect on vascular permeability utilizing the Miles assay (McClure et al., J. Pharmacological & Toxicological Methods 32:49-52, 1994). Briefly, a candidate modulating agent may be dissolved in phosphate buffered saline (PBS) at a concentration of 100 μg/ml. Adult rats may be given 100 μl subdermal injections of each peptide solution into their shaved backs, followed 15 minutes later by a single 250 μl injection of 1% Evans blue dissolved in PBS into their tail veins. The subdermal injection sites may be visually monitored for the appearance of blue dye. Once the dye appears (about 15 minutes after injection), each subdermal injection site may be excised, weighed, and placed in 1 ml dimethylformamide for 24 hours to extract the dye. The optical density of the dye extracts may then be determined at 620 nm. In general, the injection of 0.1 ml of modulating agent (at a concentration of 0.1 mg/ml) into the backs of rats causes an increase of dye accumulation at the injection sites of at least 50%, as compared to dye accumulation at sites into which PBS has been injected.\nThe ability of cyclic and linear peptides to increase vascular permeability was assessed utilizing the Miles assay (McClure et al., J. Pharmacological & Toxicological Meth. 32:49-521994). The peptides were dissolved in phosphate buffered saline (PBS) at a concentration of 100 μg/ml. Adult rats were given 100 μl subdermal injections of each peptide solution into their shaved backs, followed 15 minutes later by a single 250 μl injection of 1% Evans blue dissolved in PBS into their tail veins. The subdermal injection sites were visually monitored for the appearance of blue dye. Once the dye appeared (15 minutes after injection), each subdermal injection site was excised, weighed, and placed in 1 ml dimethylformamide for 24 hours to extract the dye. The optical density of the dye extracts was determined at 620 nm. […]"}}}
{"substance": "H-CLYHYC-OH (also: cyclic, kind not given here) [Peptide 5]", "values": [{"measurement": "fMLP-stimulated neutrophil transendothelial migration", "setting": "[1]", "value": "increase fMLP-stimulated transendothelial migration"}, {"measurement": "occludin staining and intercellular gaps in HUVEC", "setting": "HUVEC", "value": "gaps between adjacent endothelial cells and the lack of junctional proteins at these gaps"}, {"measurement": "optical densities of dimethylformamide dye extracts from excised injection sites", "setting": "Adult rats", "value": "more dye was extracted"}]}
